In brackets after ≈: the same amount, converted by molar mass.
test system: adult planthoppers; assay: Residual effect on sprayed rice seedlings (Example XV); assay type: in vivo; conditions: concentrate diluted to 400 times; observed 24 hours after release
Description: About 20 rice seedlings, cultivated for 20 days after sowing in a flower pot of 8.5 cm in diameter, were sprayed with each of the emulsifiable concentrates obtained as in Example X which were diluted to 400 times with water. After air-drying, each pot was covered with a wire cage, into which 20 adult planthoppers were released as time elapsed. And the observation was made after 24 hours.

SMILES	Mortality (%) After 1 day	Mortality (%) After 6 days
C#CC(OC(=O)C1C(C)(C)C1(C)C)C(C)=Cc1ccccc1 (stereo not drawn) [Compound 39, α-Ethynyl-β-methylcinnamyl 2,2,3,3-tetramethyl-cyclopropanecarboxylate]	100%	85.0%
C#CC(OC(=O)C1C(C=C2CCCC2)C1(C)C)C(C)=Cc1ccccc1 (centres unmarked) [Compound 40]	100%	66.7%
CNC(=O)Oc1ccc(C)c(C)c1 [Meobal, 3,4-Dimethylphenyl-N-methylcarbamate, reference compound]	100%	40.0%

test system: leafhoppers of resistant and susceptible strains; assay: Emulsion sprayed on rice seedlings, leafhoppers released (Example XVI); assay type: in vivo, leafhopper; conditions: emulsion diluted to 50 times
Description: About 20 rice seedlings, cultivated for 20 days after sowing in a flower pot of 8.5 cm in diameter were sprayed with each of the present compounds (31, 32, 35, 39, 40, 42, 45, 48, 55, 59, 60, 63, 131 - 134, 139) in the form of an emulsion which were diluted to 50 times. Each pot was put into the beaker and covered with gauze, into which leafhoppers of resistant and susceptible strains, respectively, were released in each beaker. And the number of knocked down insects after 1 hour and the mortality after 24 hours were counted. As a result, the knock down per centage was more than 50% and the mortality was more than 80% in each case.

SMILES	knock down percentage after 1 hour	mortality after 24 hours
C#CC(OC(=O)C1C(C)(C)C1(C)C)C(C)=Cc1ccccc1 (stereo not drawn) [Compound 39, α-Ethynyl-β-methylcinnamyl 2,2,3,3-tetramethyl-cyclopropanecarboxylate]	more than 50%	more than 80%
C#CC(OC(=O)C1C(C=C2CCCC2)C1(C)C)C(C)=Cc1ccccc1 (centres unmarked) [Compound 40]	more than 50%	more than 80%
C#CC(OC(=O)C1C(C)C1(C)C)C(=Cc1ccc(OCC)cc1)CC (stereo not drawn) [Compound 42, α-Ethynyl-β-ethyl-4-ethoxy-cinnamyl 2',2',3'-trimethyl-cyclopropanecarboxylate]	more than 50%	more than 80%
C#CC(OC(=O)C1C(C=C(C)C=C)C1(C)C)C(C)=Cc1ccc(C#N)cc1 (stereo not drawn) [Compound 45, α-Ethynyl-β-methyl-4-cyano-cinnamyl 2',2'-dimethyl-3'-(2"-methyl-1",3"-butadienyl)-cyclopropanecarboxylate]	more than 50%	more than 80%
C#CC(OC(=O)C1C(C)(C)C1(C)C)C(=Cc1ccccc1)C(C)C (stereo not drawn) [Compound 48, α-Ethynyl-β-isopropylcinnamyl 2,2,3,3-tetramethylcyclopropane-carboxylate]	more than 50%	more than 80%
C#CC(OC(=O)C1(C)C(C=C2CCCC2)C1(C)C)C(C)=Cc1ccccc1C (stereo not drawn) [Compound 55, α-Ethynyl-β-methyl-2-methyl-cinnamyl 1',2',2'-trimethyl-3'-cyclopentylidenemethyl-cyclopropanecarboxylate]	more than 50%	more than 80%
C#CC(OC(=O)C1C(C=C(Cl)Cl)C1(C)C)C(C)=Cc1ccccc1 (stereo not drawn) [Compound 59, α-Ethynyl-β-methylcinnamyl 2,2-dimethyl-3-(2',2'-dichloro-vinyl)cyclopropanecarboxylate]	more than 50%	more than 80%
C#CC(C=Cc1ccco1)OC(=O)C1C(C=C(C)C)C1(C)C (stereo not drawn) [Compound 60, α-Ethynyl-γ-(2-furyl)-allyl chrysanthemate]	more than 50%	more than 80%

test system: housefly adults; assay: Oil spray, Campbel's turn table, lethal concentration (Test Example 2); assay type: in vivo; conditions: Musca domestica, 24 h
Description: A group of about 100 housefly adults was exposed to descending spray for 10 minutes, thereafter was transferred to an observation cage, was fed, and was allowed to stand at room temperature.
After a day, the dead and alive were counted to calculate the lethal ratio.

SMILES	LC50
C=CCC1=C(C)C(OC(=O)C2C(C=C(C)C)C2(C)C)CC1=O (centres unmarked) [Allethrin, reference compound]	3500 µg/mL (≈ 11600 µM)
C#CC(OC(=O)C1C(C=C(C)C)C1(C)C)C(=CCCC)CC (centres unmarked) [Compound 5, 1-Ethynyl-2-ethyl-2-hexenyl chrysanthemate]	2400 µg/mL (≈ 7930 µM)
C#CC(OC(=O)C1C(C=C(C)C)C1(C)C)C(C)=CCC=C (centres unmarked) [Compound 29, 1-Ethynyl-2-methyl-2,5-hexadienyl chrysanthemate]	900 µg/mL (≈ 3140 µM)
C#CC(OC(=O)C1C(C=C(Cl)Cl)C1(C)C)/C(C)=C/CC (centres unmarked) [Compound 126, 1-Ethynyl-2-methyl-2-pentenyl 2',2'-dimethyl-3'-(2",2"-dichlorovinyl)-yclopropanecarboxylate]	300 µg/mL (≈ 952 µM)
C#CC(OC(=O)C1C(C=C(Cl)Cl)C1(C)C)C(C)=CCC=C (centres unmarked) [Compound 127, 1-Ethynyl-2-methyl-2,5-hexadien-1-yl 2',2'-dimethyl-3'-(2",2"-di-chlorovinyl)-cyclopropane-carboxylate]	250 µg/mL (≈ 764 µM)
C#CC(OC(=O)C1C(C=C(C)C)C1(C)C)C(C)=CCCC=C (centres unmarked) [Compound 128, 1-Ethynyl-2-methyl-2,6-heptadien-1-yl-chrysanthemate]	900 µg/mL (≈ 3000 µM)
C#CC(OC(=O)C1C(C=C(Cl)Cl)C1(C)C)C(C)=CCCC=C (centres unmarked) [Compound 129, 1-Ethynyl-2-methyl-2,6-heptadien-1-yl 2',2'-dimethyl-3'-(2",2"-dichlorovinyl)-cyclopropane-carboxylate]	230 µg/mL (≈ 674 µM)
C#CC(OC(=O)C1C(C=C(Cl)Cl)C1(C)C)C(C)=CC (centres unmarked) [Compound 130, 1-Ethynyl-2-methyl-2-butenyl 2',2'-dimethyl-3'-2',2"-dichlorovinyl-cyclopropanecarboxylate]	1500 µg/mL (≈ 4980 µM)

same assay, conditions: Musca domestica, 24 h; Table 3a; oil spray 5 ml, 10 minutes exposure, counted after a day; read-out: LC50

SMILES	LC50
C#CC(C#CCOC)OC(=O)C1C(C=C(C)C)C1(C)C (centres unmarked) [Compound 68, 1-Ethynyl-4-methoxy-2-butyn-1-yl chrysanthemate]	4000 µg/mL (≈ 14600 µM)
C#CC(C#CCC=C)OC(=O)C1C(C=C(C)C)C1(C)C (centres unmarked) [Compound 71, 1-Ethynylhexa-2-yn-5-en-1-yl chrysanthemate]	2900 µg/mL (≈ 10700 µM)
C#CC(C#CCOc1ccccc1)OC(=O)C1C(C=C(C)C)C1(C)C (centres unmarked) [Compound 79, 1-Ethynyl-4-phenoxy-2-butyn-1-yl chrysanthemate]	830 µg/mL (≈ 2470 µM)
C#CC(C=CC1C=CCC1)OC(=O)C1C(C=C(C)C)C1(C)C (centres unmarked) [Compound 102, 1-Ethynyl-3-(2'-cyclopentenyl)-allyl chrysanthemate]	600 µg/mL (≈ 2010 µM)
C#CC(OC(=O)C1C(C=C(C)C)C1(C)C)C(=CC1=CCCC1)CC (centres unmarked) [Compound 109, 1-Ethynyl-2-ethyl-3-(1'-cyclopentenyl)allyl chrysanthemate]	340 µg/mL (≈ 1040 µM)
C#CC(C#CCOC)OC(=O)C1C(C=C(Cl)Cl)C1(C)C (centres unmarked) [Compound 142, 1-Ethynyl-4-methoxy-2-butyn-1-yl 2',2'-dimethyl-3'-(2",2"- dichlorovinyl)-cyclopropane-carboxylate]	1200 µg/mL (≈ 3810 µM)
C#CC(C#CCC=C)OC(=O)C1C(C=C(Cl)Cl)C1(C)C (centres unmarked) [Compound 143, 1-Ethynyl-4-vinyl-2-butyn-1-yl 2',2'-dimethyl-340-(2",2"-dichloro-vinyl)-cyclopropanecarboxylate]	820 µg/mL (≈ 2630 µM)
C#CC(C#CCOc1ccccc1)OC(=O)C1C(C=C(Cl)Cl)C1(C)C (centres unmarked) [Compound 144, 1-Ethynyl-4-phenoxy-2-butyn-1-yl 2',2'-dimethyl-3'-(2",2"-dichlorovinyl)-cyclopropanecarboxylate]	290 µg/mL (≈ 769 µM)

test system: 3rd or 4th instar larvae of tobacco cut worm; assay: Diluted emulsion sprayed by settling tower on larvae (Example X); assay type: in vivo; conditions: emulsion diluted to 50 times, 1 ml
Description: Ten of the 3rd or 4th instar larvae of tobacco cut worm were put into a petri dish of 17 cm in diameter.
One ml of the present compound (4, 11, 28, 92, 94, 95, 109, 111) in form of an emulsion obtained in Example X, which were diluted to 50 times with water, were sprayed by means of a settling tower. The said larvae were removed into another petri dish with the leaves of the chinese cabbage leaves. Observation was made after 48 hrs. As a result, more than 90% of the larvae were dead in each case.

SMILES	larvae dead after 48 hrs
C#CC(OC(=O)C1C(C)(C)C1(C)C)C(C)=CC (centres unmarked) [Compound 11, 1-Ethynyl-2-methyl-2-butenyl 2',2',3',3'-tetramethylcyclo-propanecarboxylate]	more than 90%
C#CC(OC(=O)C1C(C=C2CCCC2)C1(C)C)C(C)=CCC (centres unmarked) [Compound 28, 1-Ethynyl-2-methyl-2-pentenyl 2',2'-dimethyl-3'-cyclopentylidene-methylcyclopropanecarboxylate]	more than 90%
C#CC(C#CCC=C)OC(=O)C1C(C=CC=C)C1(C)C (centres unmarked) [Compound 92, 1-Ethynylhexa-2-yn-5-en-1-yl 2',2'-dimethyl-3'-(1",3"- butadienyl)cyclopropane-carboxylate]	more than 90%
C#CC(C#CCC=C)OC(=O)C1C(C=C2CCCC2)C1(C)C (centres unmarked) [Compound 94, 1-Ethynylhexa-2-yn-5-en-1-yl 2',2'-dimethyl-3-'-cyclopentylidene-methylcyclopropanecarboxylate]	more than 90%
C#CC(C#CCC=C)OC(=O)C1C(C=C(Cl)Cl)C1(C)C (centres unmarked) [Compound 95, 1-Ethynylhexa-2-yn-5-en-1-yl 2',2'-dimethyl-3'-(2",2"- dichlorovinyl)cyclopropane-carboxylate]	more than 90%
C#CC(OC(=O)C1C(C=C(C)C)C1(C)C)C(=CC1=CCCC1)CC (centres unmarked) [Compound 109, 1-Ethynyl-2-ethyl-3-(1'-cyclopentenyl)allyl chrysanthemate]	more than 90%

Reference: patent US4003945A, “Novel cyclopropanecarboxylates” (Sumitomo Chemical Company, Limited, priority 1973, dated 1977)
